In US20250101041A1, “POSITIVE ALLOSTERIC MODULATORS OF THE MUSCARINIC ACETYLCHOLINE RECEPTOR M4” (Vanderbilt University, priority 2022, published 2025):
pEC50: −log10 of the molar value.

Experiments:
[1] = cited from earlier work
[2] = Alzheimer's disease patients; cited from earlier work
[3] = patients treated with AChE inhibitors such as tacrine; cited from earlier work
[4] = target: T1, human mAChR M4 (Homo sapiens, UniProt P08173); experiment: mAChR M4 cell-based functional assay: calcium mobilization (Fluo-4, FDSS), potentiation of EC20 acetylcholine response in hM4-Gqi5 CHO-K1 cells; conditions: human M4; for Emax at 30 µM: CHO-K1, % ACh maximum at 30 μM; for pEC50: potentiation of EC20 acetylcholine response, calcium mobilization
T1 construct: expressed in transfected cells; host or cells: CHO-K1 (American Type Culture Collection), stably expressing hM4 and Gqi5
T1 sequence (P08173 1-479): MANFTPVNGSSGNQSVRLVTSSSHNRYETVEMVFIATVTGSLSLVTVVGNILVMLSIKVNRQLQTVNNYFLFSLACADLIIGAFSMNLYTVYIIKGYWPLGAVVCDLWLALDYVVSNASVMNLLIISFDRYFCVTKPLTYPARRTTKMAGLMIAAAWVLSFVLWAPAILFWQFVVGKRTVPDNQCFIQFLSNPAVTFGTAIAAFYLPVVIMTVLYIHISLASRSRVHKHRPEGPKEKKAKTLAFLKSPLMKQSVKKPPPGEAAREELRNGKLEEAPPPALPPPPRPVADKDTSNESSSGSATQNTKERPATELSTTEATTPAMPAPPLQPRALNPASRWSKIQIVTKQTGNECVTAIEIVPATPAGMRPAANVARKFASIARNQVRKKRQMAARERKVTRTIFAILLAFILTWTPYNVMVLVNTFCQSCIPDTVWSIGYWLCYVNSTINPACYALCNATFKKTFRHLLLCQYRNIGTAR
How it was run: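 Readout is the fluorescence-ratio rise at 1 Hz on FDSS, with PAM activity taken as concentration-dependent enhancement of the EC20 acetylcholine response, fitted four-parameter for EC50/Emax. hM4-Gqi5 CHO-K1 cells carried Fluo-4 AM dye; test compounds (11 points, 1:3) preceded EC20 acetylcholine additions at 144 s and 230 s.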

| Emax at 30 µM [4] | pEC50 [4] | SMILES | further results |
| --- | --- | --- | --- |
|  |  | CCCCCCOc1nsnc1C1=CCCN(C)C1 [xanomeline] | catalepsy ([1]; animal models): without causing catalepsy; activity in animal models with similar profiles to known antipsychotic drugs [1]: active; psychotic behavioral symptoms such as delusions, suspiciousness, vocal outbursts, and hallucinations [2]: reduce psychotic behavioral symptoms; treatment induced side effects [2]: gastrointestinal effects |
|  |  | Nc1c2c(nc3ccccc13)CCCC2 [tacrine] | patients with elevated liver transaminases (hepatotoxicity) [3]: about 30% |
| 85% | 7.47 | COCc1cc(=O)n2nc(N3CCc4ncc(-c5cnccc5C)cc4C3)c(C)c(C)c2n1 [Compound 1-228, 2-(methoxymethyl)-8,9-dimethyl-7-(3-(4-methylpyridin-3-yl)-7,8-dihydro-1,6-naphthyridin-6(5H)-yl)-4H-pyrimido[1,2-b] pyridazin-4-one] |  |
| 95% | 6.96 | Cc1cc(Cl)c(-c2cnc3c(c2)CN(c2nn4c(=O)cc(C(F)F)nc4c(C)c2C)CC3)cn1 [Compound 1-187, 7-(3-(4-chloro-6-methylpyridin-3-yl)-7,8-dihydro-1,6-naphthyridin-6(5H)-yl)-2-(difluoromethyl)-8,9-dimethyl-4H-pyrimido[1,2-b]pyridazin-4-one] |  |
| 86% | 7.02 | COCc1cc(=O)n2nc(N3CCc4ncc(-c5cnn(C6CC6)c5)cc4C3)c(C)c(C)c2n1 [Compound 1-263, 7-(3-(1-cyclopropyl-1H-pyrazol-4-yl)-7,8-dihydro-1,6-naphthyridin-6(5H)-yl)-2-(methoxymethyl)-8,9-dimethyl-4H-pyrimido[1,2-b]pyridazin-4-one] |  |
| 96% | 6.39 | Cc1c(N2CCc3ncc(-c4ccnnc4)cc3C2)nn2c(=O)ccnc2c1C [Compound 1-141, 8,9-dimethyl-7-(3-(pyridazin-4-yl)-7,8-dihydro-1,6-naphthyridin-6(5H)-yl)-4H-pyrimido[1,2-b]pyridazin-4-one] |  |
| 102% | 6.20 | Cc1ccc(-c2cnc3c(c2)CN(c2nn4c(=O)cc(C)nc4c(C)c2C)CC3)c(C)c1 [Compound 1-136, 7-(3-(2,4-dimethylphenyl)-7,8-dihydro-1,6-naphthyridin-6(5H)-yl)-2,8,9-trimethyl-4H-pyrimido[1,2-b]pyridazin-4-one] |  |
| 89% | 6.26 | COc1cc(C)c(-c2cnc3c(c2)CN(c2nn4c(=O)cc(C)nc4cc2C)CC3)cn1 [Compound 1-285, 7-(3-(6-methoxy-4-methylpyridin-3-yl)-7,8-dihydro-1,6-naphthyridin-6(5H)-yl)-2,8-dimethyl-4H-pyrimido[1,2-b]pyridazin-4-one] |  |
| 92% | 7.10 | Cc1cc2nc(C(F)F)cc(=O)n2nc1N1CCc2ncc(-c3cnn(C)c3)cc2C1 [Compound 1-35, 2-(Difluoromethyl)-8-methyl-7-(3-(1-methyl-1H-pyrazol-4-yl)-7,8-dihydro-1,6-naphthyridin-6(5H)-yl)-4H-pyrimido[1,2-b]pyridazin-4-one] |  |
| 96% | 6.95 | Cc1cc2nccc(=O)n2nc1N1CCc2ncc(N3CCOC(C)(C)C3)cc2C1 [Compound 2-68, 7-(3-(2,2-dimethylmorpholino)-7,8-dihydro-1,6-naphthyridin-6(5H)-yl)-8-methyl-4H-pyrimido[1,2-b]pyridazin-4-one] |  |
| 99% | 6.61 | Cc1cc(=O)n2nc(N3CCc4ncc(-c5cnn(C)c5C)cc4C3)c(C)cc2n1 [Compound 1-294, 7-(3-(1,5-dimethyl-1H-pyrazol-4-yl)-7,8-dihydro-1,6-naphthyridin-6(5H)-yl)-2,8-dimethyl-4H-pyrimido[1,2-b]pyridazin-4-one] |  |
| 85% | 7.11 | Cc1cc(F)c(F)cc1-c1cnc2c(c1)CN(c1nn3c(=O)ccnc3cc1C)CC2 [Compound 1-445, 7-(3-(4,5-difluoro-2-methylphenyl)-7,8-dihydro-1,6-naphthyridin-6(5H)-yl)-8-methyl-4H-pyrimido[1,2-b]pyridazin-4-one] |  |
| 92% | 7.28 | Cc1cc2nccc(=O)n2nc1N1CCc2ncc(Nc3cc(Cl)cnc3F)cc2C1 [Compound 2-116, 7-(3-((5-chloro-2-fluoropyridin-3-yl)amino)-7,8-dihydro-1,6-naphthyridin-6(5H)-yl)-8-methyl-4H-pyrimido[1,2-b]pyridazin-4-one] |  |
